The record followed here is patent publication US9056874B2, “Complement pathway modulators and uses thereof” (NOVARTIS AG, priority 2012, dated 2015).

In the test the target is factor B (Homo sapiens, UniProt P00751). Kind of test: factor B inhibition assay of Biological Example 1. As to conditions: IC50 (nM), assay of Biological Example 1 (Table 1). The arrangement: CVF-Bb complex prepared from purified cobra venom factor (1 μM), recombinant human complement factor B; made in house; host or cells: drosophila cells (factor B); E. coli (factor D used to form the complex). It counts as biochemical.
factor B, sequence (P00751 260-764 limits assumed): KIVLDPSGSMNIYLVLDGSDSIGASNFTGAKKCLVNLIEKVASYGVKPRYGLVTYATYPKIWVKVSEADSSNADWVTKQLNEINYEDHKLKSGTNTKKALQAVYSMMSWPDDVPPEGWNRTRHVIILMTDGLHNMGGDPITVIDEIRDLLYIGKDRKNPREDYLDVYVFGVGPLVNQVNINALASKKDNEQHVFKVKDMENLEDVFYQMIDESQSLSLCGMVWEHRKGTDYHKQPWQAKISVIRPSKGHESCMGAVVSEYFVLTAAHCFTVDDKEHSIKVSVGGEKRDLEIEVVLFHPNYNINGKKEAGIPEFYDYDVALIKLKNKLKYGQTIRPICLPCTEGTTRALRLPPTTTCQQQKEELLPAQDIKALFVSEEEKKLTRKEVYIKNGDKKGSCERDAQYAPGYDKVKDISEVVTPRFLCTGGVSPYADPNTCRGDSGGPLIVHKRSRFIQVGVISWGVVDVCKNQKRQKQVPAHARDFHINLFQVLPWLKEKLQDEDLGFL
factor B, sequence (Q91132 23-649 partner limits assumed): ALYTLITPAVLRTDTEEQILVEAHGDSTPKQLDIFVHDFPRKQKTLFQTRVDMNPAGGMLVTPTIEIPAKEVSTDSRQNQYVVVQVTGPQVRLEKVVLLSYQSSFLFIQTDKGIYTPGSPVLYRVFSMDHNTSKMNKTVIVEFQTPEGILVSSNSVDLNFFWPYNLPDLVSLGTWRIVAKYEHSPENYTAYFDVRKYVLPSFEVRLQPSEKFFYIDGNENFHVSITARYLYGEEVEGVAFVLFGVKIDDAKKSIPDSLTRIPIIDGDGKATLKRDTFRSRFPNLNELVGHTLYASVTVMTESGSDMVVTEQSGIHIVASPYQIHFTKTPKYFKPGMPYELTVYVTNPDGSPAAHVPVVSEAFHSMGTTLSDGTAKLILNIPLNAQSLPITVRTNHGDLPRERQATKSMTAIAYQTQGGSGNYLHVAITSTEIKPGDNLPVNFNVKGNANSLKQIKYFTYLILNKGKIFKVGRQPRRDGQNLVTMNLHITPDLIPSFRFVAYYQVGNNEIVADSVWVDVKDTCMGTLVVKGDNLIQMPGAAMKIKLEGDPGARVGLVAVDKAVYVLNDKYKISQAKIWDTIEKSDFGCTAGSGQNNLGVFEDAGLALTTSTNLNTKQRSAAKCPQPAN
factor B, sequence (Q91132 733-984 partner limits assumed): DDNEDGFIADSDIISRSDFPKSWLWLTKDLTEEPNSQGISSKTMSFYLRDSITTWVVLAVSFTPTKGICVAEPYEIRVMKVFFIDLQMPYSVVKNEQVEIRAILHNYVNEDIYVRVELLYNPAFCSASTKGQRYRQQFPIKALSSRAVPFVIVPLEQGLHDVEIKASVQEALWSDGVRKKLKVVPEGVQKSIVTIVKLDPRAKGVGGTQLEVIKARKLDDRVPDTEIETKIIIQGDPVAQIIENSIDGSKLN
factor B, sequence (Q91132 1264-1642 partner limits assumed): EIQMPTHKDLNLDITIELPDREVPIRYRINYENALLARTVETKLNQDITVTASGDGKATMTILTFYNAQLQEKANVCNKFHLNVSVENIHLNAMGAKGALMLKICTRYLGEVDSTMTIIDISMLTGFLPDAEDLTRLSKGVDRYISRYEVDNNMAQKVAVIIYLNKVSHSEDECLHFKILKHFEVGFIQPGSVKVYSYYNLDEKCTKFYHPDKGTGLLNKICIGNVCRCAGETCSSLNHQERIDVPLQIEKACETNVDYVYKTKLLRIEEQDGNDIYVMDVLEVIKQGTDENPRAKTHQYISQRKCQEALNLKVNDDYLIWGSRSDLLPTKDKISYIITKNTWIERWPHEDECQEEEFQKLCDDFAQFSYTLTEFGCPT

In the case of `CNC(=O)c1cc(C)c2[nH]ccc2c1C(O)(c1nc2cc(C#N)ccc2[nH]1)C(F)(F)F` (racemic) [Example 82, (±)-4-(1-(5-cyano-1H-benzo[d]imidazol-2-yl)-2,2,2-trifluoro-1-hydroxyethyl)-N,7-dimethyl-1H-indole-5-carboxamide], the IC50 amounted to 71900 nM.
To `Cc1cc(C(F)(F)F)c(C(C)(O)c2nc3cc(C#N)ccc3[nH]2)c2cc[nH]c12` (racemic) [Example 83-B, (±)-2-(1-hydroxy-1-(7-methyl-5-(trifluoromethyl)-1H-indol-4-yl)ethyl)-1H-benzo[d]imidazole-5-carbonitrile] belongs 1440 nM; to `CCc1cc(C)c2[nH]cc(Cl)c2c1C(O)c1nc2cc(C#N)ccc2[nH]1` (racemic) [Example 87, (±)-2-((3-Chloro-5-ethyl-7-methyl-1H-indol-4-yl)(hydroxy)methyl)-1H-benzo[d]imidazole-5-carbonitrile], 380 nM.
To `Cc1cc(C)c2[nH]cc(C)c2c1C(O)c1nc2cc(C#N)ccc2[nH]1` (racemic) [Example 89-D, (±)-2-(Hydroxy(3,5,7-trimethyl-1H-indol-4-yl)methyl)-1H-benzo[d]imidazole-5-carbonitrile] belongs 2320 nM.
To `CCc1cc(C)c2[nH]cc(C(O)C(F)(F)F)c2c1Cc1nc2cc(C#N)ccc2[nH]1` (racemic) [Example 92-B, (±)-2-((5-Ethyl-7-methyl-3-(2,2,2-trifluoro-1-hydroxyethyl)-1H-indol-4-yl)methyl)-1H-benzo[d]imidazole-5-carbonitrile] belongs 9750 nM.
Regarding `CNC(c1nc2cc(C#N)ccc2[nH]1)c1c(C)cc(C)c2[nH]ccc12` (racemic) [Example 98-B, (±)-2-((5,7-Dimethyl-1H-indol-4-yl)(methylamino)methyl)-1H-benzo[d]imidazole-5-carbonitrile], the half-inhibitory concentration (IC50) was determined as 560 nM.
To `Cc1cc(C)c2[nH]ccc2c1C(NS(C)(=O)=O)c1nc2cc(C#N)ccc2[nH]1` (racemic) [Example 99-B, (±)-N-((5-cyano-1H-benzo[d]imidazol-2-yl)(5,7-dimethyl-1H-indol-4-yl)methyl)methanesulfonamide] belongs 750 nM.
On to `CC(=O)NC(c1nc2cc(C#N)ccc2[nH]1)c1c(C)cc(C)c2[nH]ccc12` (racemic) [Example 100, (±)-N-((5-cyano-1H-benzo[d]imidazol-2-yl)(5,7-dimethyl-1H-indol-4-yl)methyl)acetamide], for which the half-maximal inhibitory concentration (IC50) amounted to 1120 nM.
To `CNC(C)(c1nc2cc(C#N)ccc2[nH]1)c1c(C)cc(C)c2[nH]ccc12` (racemic) [Example 103-E, (±)-2-(1-(5,7-Dimethyl-1H-indol-4-yl)-1-(methylamino)ethyl)-1H-benzo[d]imidazole-5-carbonitrile] belongs 50 nM; to `Cc1cc(C)c2[nH]ccc2c1C(C)(c1nc2cc(C#N)ccc2[nH]1)N(C)C` (racemic) [Example 104-B, (±)-2-(1-(5,7-dimethyl-1H-indol-4-yl)-1-(dimethylamino)ethyl)-1H-benzo[d]imidazole-5-carbonitrile], 260 nM; to `Cc1cc(C)c2[nH]ccc2c1C(CO)c1nc2cc(C#N)ccc2[nH]1` (racemic) [Example 108-E, (±)-2-(1-(5,7-Dimethyl-1H-indol-4-yl)-2-hydroxyethyl)-1H-benzo[d]imidazole-5-carbonitrile], 80 nM.
As for `CCc1cc(C)c2[nH]ccc2c1C(OCC(=O)O)(c1nc2cc(C#N)ccc2[nH]1)C(F)(F)F` (racemic) [Example 109-B, (±)-2-(1-(5-cyano-1H-benzo[d]imidazol-2-yl)-1-(5-ethyl-7-methyl-1H-indol-4-yl)-2,2,2-trifluoroethoxy)acetic acid], the concentration for half-maximal inhibition (IC50) amounted to 30 nM.
To `CCc1cc(C)c2[nH]cc(-c3ccccc3)c2c1C(O)c1nc2cc(C#N)ccc2[nH]1` (racemic) [Example 117-F, (±)-2-((5-Ethyl-7-methyl-3-phenyl-1H-indol-4-yl)(hydroxy)methyl)-1H-benzo[d]imidazole-5-carbonitrile] belongs 70 nM; to `Cc1cc(C)c2[nH]cc(-c3ccn[nH]3)c2c1C(O)c1nc2cc(C#N)ccc2[nH]1` (racemic) [Example 121-D, (±)-2-((5,7-Dimethyl-3-(1H-pyrazol-5-yl)-1H-indol-4-yl)(hydroxy)methyl)-1H-benzo[d]imidazole-5-carbonitrile], 480 nM; to `COc1cc(C)c2[nH]ccc2c1C(OCC(=O)O)(c1nc2cc(C#N)ccc2o1)C(F)(F)F` (racemic) [Example 129-B, (±)-2-(1-(5-cyanobenzo[d]oxazol-2-yl)-2,2,2-trifluoro-1-(5-methoxy-7-methyl-1H-indol-4-yl)ethoxy)acetic acid], 7860 nM.
To `COc1cc(C)c2[nH]ccc2c1C(N)(c1nc2cc(C#N)ccc2o1)C(F)(F)F` (racemic) [Example 130-B, (±)-2-(1-Amino-2,2,2-trifluoro-1-(5-methoxy-7-methyl-1H-indol-4-yl)ethyl)benzo[d]oxazole-5-carbonitrile] belongs 20 nM; to `COc1cc(C)c2[nH]ccc2c1C(O)c1nc2ccc(C#N)cc2s1` (racemic) [Example 132-B, (±)-2-(hydroxy(5-methoxy-7-methyl-1H-indol-4-yl)methyl)benzo[d]thiazole-6-carbonitrile], 70 nM.
To `COc1cc(C)c2[nH]ccc2c1C(O)c1cc2ccc(C#N)cc2o1` (racemic) [Example 133-B, (±)-2-(hydroxy(5-methoxy-7-methyl-1H-indol-4-yl)methyl)benzofuran-6-carbonitrile] belongs 100 nM.
Take `COc1cc(C)c2[nH]ccc2c1C(O)c1cc2cc(C#N)ccc2o1` (racemic) [Example 134, (±)-2-(hydroxy(5-methoxy-7-methyl-1H-indol-4-yl)methyl)benzofuran-5-carbonitrile]: the IC50 was 90 nM.
Consider `COc1cc(C)c2[nH]ccc2c1C(O)c1cc2ccc(C#N)cc2[nH]1` (racemic) [Example 135-C, (±)-2-(hydroxy(5-methoxy-7-methyl-1H-indol-4-yl)methyl)-1H-indole-6-carbonitrile], for which the concentration for half-maximal inhibition (IC50) was determined as 20 nM.
To `COc1cc(C)c2[nH]ccc2c1C(O)c1cc2cc(C#N)ccc2[nH]1` (racemic) [Example 136, (±)-2-(hydroxy(5-methoxy-7-methyl-1H-indol-4-yl)methyl)-1H-indole-5-carbonitrile] belongs 20 nM; to `Cc1cc(S(C)(=O)=O)c(C(C)(O)c2nc3cc(C#N)ccc3[nH]2)c2cc[nH]c12` (single isomer, unassigned) [11-C b) (tr = 3 min), (+) or (−)-2-(1-hydroxy-1-(7-methyl-5-(methylsulfonyl)-1H-indol-4-yl)ethyl)-1H-benzo[d]imidazole-5-carbonitrile], 90 nM; to `Cc1cc(S(C)(=O)=O)c(C(C)(O)c2nc3cc(C#N)ccc3[nH]2)c2cc[nH]c12` (single isomer, unassigned) [11-C b) (tr = 4.2 min), (−) or (+)-2-(1-hydroxy-1-(7-methyl-5-(methylsulfonyl)-1H-indol-4-yl)ethyl)-1H-benzo[d]imidazole-5-carbonitrile], 1020 nM.
With `Cc1cc(S(C)(=O)=O)c(C(N)c2nc3cc(C#N)ccc3[nH]2)c2cc[nH]c12` (single isomer, unassigned) [18-D (+), 2-(amino(7-methyl-5-(methylsulfonyl)-1H-indol-4-yl)methyl)-1H-benzo[d]imidazole-5-carbonitrile], the concentration for half-maximal inhibition (IC50) was 1240 nM.
